How the values were obtained:
[1] = system: CAL-51 cells; assay: CAL-51 proliferation assay; assay type: cell-based; settings: Homo sapiens, CAL-51, 72 h, YO-PRO-1 Iodide readout
Method in brief: (§1)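 Cells seeded at 750 per well, treated next day for 72 h at 37 °C with 0.5% final DMSO. Cell number read by YO-PRO-1 fluorescence after lysis, normalized to DMSO (100%) and time-zero cells (0%). GI50 from 4-parameter logistic fit, maximum constrained to 100%.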

[2] = target: T1, recombinant human CLK3 (Homo sapiens, UniProt P49761); assay: CLK3 kinase assay (LANCE Ultra); assay type: biochemical; settings: CLK3 0.5 nM, ATP 300 μM, 3 hours at 30° C.
T1 construct: purchased Thermo Fisher Scientific PV3826
Method in brief: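 Recombinant human CLK3 (0.5 nM) with ULight-CREBtide (50 nM) and 300 μM ATP, 3 h at 30 °C in kinase buffer; EDTA stop, then Eu-anti-phospho-CREB antibody (2 nM, 1 h RT), TR-FRET read at 665/620 nm. Inhibition normalized to DMSO and no-ATP wells; IC50 from 4-parameter fit, ten 1:3 concentrations in duplicate.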

[3] = system: MDA-MB-231 cells; assay: MDA-MB-231 proliferation assay; assay type: cell-based; settings: Homo sapiens, MDA-MB-231, 72 h, YO-PRO-1 Iodide readout
Method in brief: as §1

T1 sequence (P49761 whole entry): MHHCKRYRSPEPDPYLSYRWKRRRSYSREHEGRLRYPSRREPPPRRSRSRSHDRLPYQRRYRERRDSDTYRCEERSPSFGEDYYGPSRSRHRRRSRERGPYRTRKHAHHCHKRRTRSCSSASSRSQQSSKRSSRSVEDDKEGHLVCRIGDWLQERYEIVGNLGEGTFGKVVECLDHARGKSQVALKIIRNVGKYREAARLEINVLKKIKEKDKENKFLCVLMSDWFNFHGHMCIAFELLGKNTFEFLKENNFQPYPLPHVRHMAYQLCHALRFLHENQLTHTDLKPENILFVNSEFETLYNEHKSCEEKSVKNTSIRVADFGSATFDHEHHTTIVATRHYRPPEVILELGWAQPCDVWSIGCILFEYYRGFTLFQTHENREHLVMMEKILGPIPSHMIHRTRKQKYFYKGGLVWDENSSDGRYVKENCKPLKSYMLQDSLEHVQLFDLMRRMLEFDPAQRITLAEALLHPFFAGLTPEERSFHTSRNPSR

Structure (SMILES) | IC50 [2] | GI50 [3] | GI50 [1]
CC1(C)Cc2c(ccc(O[C@H]3CC[C@H](N)CC3)c2NCC2(C#N)CC2)-c2ncnc(N)c21 [Example 76, 1-[[[4-amino-8-(trans-4-aminocyclohexoxy)-5,5-dimethyl-6H-benzo[h]quinazolin-7-yl]amino]methyl]cyclopropanecarbonitrile] | 0.101 to 1 µM | 0.1 to 2 µM | 0.1 to 2 µM
CC1(C)Cc2c(ccc(O[C@H]3CC[C@H](N4CCOCC4)CC3)c2NC[C@@H]2CNC(=O)O2)-c2ncnc(N)c21 [Example 131, (5R)-5-[[[4-amino-5,5-dimethyl-8-(trans-4-morpholinocyclohexoxy)-6H-benzo[h]quinazolin-7-yl]amino]methyl]oxazolidin-2-one] | < 0.03 µM | 0.1 to 2 µM | 0.1 to 2 µM
CN(CC1CCOCC1)c1c(O[C@H]2CC[C@@H](N)CC2)ccc2c1CC(C)(C)c1c(N)ncnc1-2 [Example 29, 8-(cis-4-aminocyclohexoxy)-N7,5,5-trimethyl-N7-(tetrahydropyran-4-ylmethyl)-6H-benzo[h]quinazoline-4,7-diamine] | 0.101 to 1 µM | 0.1 to 2 µM | 0.1 to 2 µM
CCN(C)c1c(O[C@H]2CC[C@H](N)CC2)ccc2c1CC(C)(C)c1c(N)ncnc1-2 [Example 67, 8-(trans-4-aminocyclohexoxy)-N7-ethyl-N7,5,5-trimethyl-6H-benzo[h]quinazoline-4,7-diamine] | < 0.03 µM | < 0.1 µM | < 0.1 µM
CN(CCO)c1c(O[C@H]2CC[C@@H](N)CC2)ccc2c1CC1(CCCC1)c1c(N)ncnc1-2 [Example 83, 2-[[4-amino-8-(cis-4-aminocyclohexoxy)spiro[6H-benzo[h]quinazoline-5,1′-cyclopentane]-7-yl]-methyl-amino]ethanol] | < 0.03 µM | < 0.1 µM | < 0.1 µM
CCOC(=O)CNc1c(O[C@H]2CC[C@@H](N)CC2)ccc2c1CC1(CCCC1)c1c(N)ncnc1-2 [Example 65, ethyl 2-[[4-amino-8-(cis-4-aminocyclohexoxy)spiro[6H-benzo[h]quinazoline-5,1′-cyclopentane]-7-yl]amino]acetate] | 0.03 to 0.1 µM | 0.1 to 2 µM | 0.1 to 2 µM
CC1(C)Cc2c(ccc(O[C@H]3CC[C@@H](N4CCOCC4)CC3)c2NC[C@@H]2CNC(=O)O2)-c2ncnc(N)c21 [Example 130, (5R)-5-[[[4-amino-5,5-dimethyl-8-(cis-4-morpholinocyclohexoxy)-6H-benzo[h]quinazolin-7-yl]amino]methyl]oxazolidin-2-one] | < 0.03 µM | > 2 µM | 0.1 to 2 µM
COc1ccc2c(c1N1CC(CO)C1)CC(C)(C)c1c(N)ncnc1-2 [Example 28, [1-(4-amino-8-methoxy-5,5-dimethyl-6H-benzo[h]quinazolin-7-yl)azetidin-3-yl]methanol] | 0.101 to 1 µM | 0.1 to 2 µM | 0.1 to 2 µM
CC1(C)Cc2c(ccc(O[C@H]3CC[C@H](N)CC3)c2N2CC=CC2=O)-c2ncnc(N)c21 [Example 56, 1-[4-amino-8-(trans-4-aminocyclohexoxy)-5,5-dimethyl-6H-benzo[h]quinazolin-7-yl]-2H-pyrrol-5-one] | 0.101 to 1 µM | > 2 µM | > 2 µM
CN(c1c(O[C@H]2CC[C@H](N)CC2)ccc2c1CC(C)(C)c1c(N)ncnc1-2)S(=O)(=O)c1ccc(F)cc1 [Example 114, N-[4-amino-8-(trans-4-aminocyclohexoxy)-5,5-dimethyl-6H-benzo[h]quinazolin-7-yl]-4-fluoro-N-methyl-benzenesulfonamide] | < 0.03 µM | < 0.1 µM | < 0.1 µM

Further lines, with some results ahead:

IC50 [2] | GI50 [3] | Structure (SMILES) | GI50 [1]
0.03 to 0.1 µM | 0.1 to 2 µM | CN(C[C@@H]1CNC(=O)O1)c1c(Br)ccc2c1CC(C)(C)c1c(N)ncnc1-2 [Example 126, (5S)-5-[[(4-amino-8-bromo-5,5-dimethyl-6H-benzo[h]quinazolin-7-yl)-methyl-amino]methyl]oxazolidin-2-one] | 0.1 to 2 µM
< 0.03 µM | < 0.1 µM | CN(CCC#N)c1c(O[C@H]2CC[C@H](N(C)C)CC2)ccc2c1CC(C)(C)c1c(N)ncnc1-2 [Example 96] | < 0.1 µM
< 0.03 µM | < 0.1 µM | CC1(C)Cc2c(ccc(Br)c2NC[C@@H]2CNC(=O)O2)-c2ncnc(N)c21 [Example 121, (5R)-5-[[(4-amino-8-bromo-5,5-dimethyl-6H-benzo[h]quinazolin-7-yl)amino]methyl]oxazolidin-2-one] | < 0.1 µM
0.03 to 0.1 µM | 0.1 to 2 µM | COc1ccn(-c2c(O[C@H]3CC[C@H](N)CC3)ccc3c2CC(C)(C)c2c(N)ncnc2-3)c1 [Example 57, 8-(trans-4-aminocyclohexoxy)-7-(3-methoxypyrrol-1-yl)-5,5-dimethyl-6H-benzo[h]quinazolin-4-amine] | < 0.1 µM
0.101 to 1 µM | 0.1 to 2 µM | COCCNc1c(O[C@H]2CC[C@H](N)CC2)ccc2c1CC1(CCCC1)c1c(N)ncnc1-2 [Example 62, 8-(trans-4-aminocyclohexoxy)-N7-(2-methoxyethyl)spiro[6H-benzo[h]quinazoline-5,1′-cyclopentane]-4,7-diamine] | 0.1 to 2 µM
0.03 to 0.1 µM | 0.1 to 2 µM | CC(C)CN(C)c1c(O[C@H]2CC[C@H](N)CC2)ccc2c1CC(C)(C)c1c(N)ncnc1-2 [Example 106, 8-(trans-4-aminocyclohexoxy)-N7-isobutyl-N7,5,5-trimethyl-6H-benzo[h]quinazoline-4,7-diamine] | 0.1 to 2 µM
0.101 to 1 µM | 0.1 to 2 µM | CC1(C)C(=O)c2c(ccc(O[C@H]3CC[C@H](N)CC3)c2N)-c2ncnc(N)c21 [Example 34, 4,7-diamino-8-(trans-4-aminocyclohexoxy)-5,5-dimethyl-benzo[h]quinazolin-6-one] | 0.1 to 2 µM
< 0.03 µM | 0.1 to 2 µM | CN(c1c(O[C@H]2CC[C@H](N)CC2)ccc2c1CC(C)(C)c1c(N)ncnc1-2)S(=O)(=O)CCO [Example 44, N-[4-amino-8-(4-trans-aminocyclohexoxy)-5,5-dimethyl-6H-benzo[h]quinazolin-7-yl]-2-hydroxy-N-methyl-ethanesulfonamide] | 0.1 to 2 µM
< 0.03 µM | > 2 µM | CC1(C)Cc2c(ccc(O[C@H]3CC[C@H](N)CC3)c2N(CCO)CCO)-c2ncnc(N)c21 [Example 11, 2-[[4-amino-8-(trans-4-aminocyclohexoxy)-5,5-dimethyl-6H-benzo[h]quinazolin-7-yl]-(2-hydroxyethyl)amino]ethanol] | 0.1 to 2 µM
0.101 to 1 µM | > 2 µM | CC(C)CCN(C)c1c(O[C@H]2CC[C@H](N)CC2)ccc2c1CC(C)(C)c1c(N)ncnc1-2 [Example 104, 8-(trans-4-aminocyclohexoxy)-N7-isopentyl-N7,5,5-trimethyl-6H-benzo[h]quinazoline-4,7-diamine] | 0.1 to 2 µM
< 0.03 µM | 0.1 to 2 µM | CC1(C)Cc2c(ccc(O[C@H]3CC[C@H](N)CC3)c2N)-c2ncnc(N)c21 [Example 5, 8-(trans-4-aminocyclohexoxy)-5,5-dimethyl-6H-benzo[h]quinazoline-4,7-diamine] | 0.1 to 2 µM
